In patent publication US5922730A, “Alkylated rapamycin derivatives” (American Home Products Corporation, priority 1998, dated 1999):
pIC50: −log10 of the molar value. Where “and” joins values, the source holds several entries; their conditions need not be identical. Equal entries are not always repeated.

Columns and labels:
[1] = system: thymocyte proliferation (cells from the thymus, PHA and IL-1); assay: comitogen-induced thymocyte proliferation procedure (LAF); type: cell-based, BALB/c mice
Protocol: Briefly, cells from the thymus of normal BAUI/c mioe are cultured for 72 hours with PHA and IL-1 and pulsed with tritiated thymidine during the last six hours. […] Cells are harvested and incorporated; radioactivity is determined. Inhibition of lymphoproliferation is assessed in percent change in counts per minute from nondrug treated controls.

[2] = system: pinch skin graft from male DBA/2 donors transplanted to male BALB/c recipients; assay: pinch skin graft survival; type: in vivo; conditions: intraperitoneal
Protocol: (§1) Immunosuppressive activity was evaluated in an in vitro standard pharmacological test procedure to measure lymphocyte proliferation (LAF), in an in vivo procedure to evaluate the survival time of a pinch skin graft, and in an in vivo procedure to determine inhibition of T-cell mediated inflammatory response (adjuvant arthritis).
The in vivo test procedure is designed to determine the survival time of pinch skin graft from male DBA/2 donors transplanted to male BALB/c recipients. The method is adapted from Brllingham R. E. and Medawar P. B., J. Exp. Biol. 28:385-402, (1951). Briefly, a pinch skin graft from the donor is grafted on the dorsum of the recipient as a homograft, and an autograft is used as control in the same region. […] Untreated recipients serve as rejection control. The graft is monitored daily and observations are recorded until the graft becomes dry and forms a blackened scab. This is considered as the rjection day. The mean graft survival time (MST -number of days±S.D.) of the drug treatment group is compared with the control group. Rapamycin treatment provides a mean graft survival (MST) of is 12.0±1.7 days.

[3] = system: colon (MIP 101) cancer cell line; assay: inhibition of growth of human tumor cells in vitro (Sulforhodaine B); type: cell-based; conditions: MIP 101, 48 hours exposure
Protocol: (§2) Human tumor cell lines were plated in 96-well plates (250 μL well, 1-6×10^4 cells/mL) in RPMI 1640 medium, containing 5% FBS (Petal Bovine Serum). Twenty-four hours after plating, drugs were added at five log concentrations (0.01-100 μg/mL). After 48 hours exposure to drugs, cells were fixed with trichloroacteic acid, and stained with Sulforhodaine B. After washing with trichloroacetic acid, bound dye was solubilized in 10 mM Tris base and Optical Density was determined using a plate reader. Under conditions of the assay, the optical density is proportional to the number of cells in the well. IC50 s (concentrations causing 50% inhibition of cell growth) were determined from the growth inhibition plots. The assay is described in details by Philip Skehan et al., J. National Cancer Institute 82, 1107-1112, 1990.

[4] = system: breast (T47D) cancer cell line; assay: as above; type: cell-based; conditions: 48 hours exposure
Protocol: as §2

[5] = system: ovarian (A 2780S) cancer cell line; assay: as above; type: cell-based; conditions: 48 hours exposure
Protocol: as §2

[6] = system: Freund's Complete Adjuvant (FCA) induced arthritis; assay: adjuvant arthritis standard pharmacological test procedure; type: in vivo, rats (male inbred Wistar Lewis)
Protocol: as §1
The in vivo adjuvant arthritis standard pharmacological test procedure measures the abilty of test compounds to prevent immune mediated inflammation and inhibit or treat rheumatoid arthritis. The following briefly describes the test procedure used. A group of rats (male inbred Wistar Lewis rats) are pre-treated with the compound to be tested (1 h prior to antigen) and then injected with Freund's Complete Adjuvant (FCA) in the right hind paw to induce arthritis. The rats are then orally dosed on a Monday, Wednesday, Friday schedule from day 0-14 for a total of 7 doses. Both hind paws are measured on days 16, 23 and 30. The difference in paw volume (mL) from day 16 to day 0 is determined and a percent change from control is obtained. The left hind paw (uninjected paw) inflammation is caused by T-cell mediated inflammation and is recorded as percent change from control. The right hind paw inflammation, on the other hand, is caused by non-specific inflammation. Compounds were tested at a dose of 2 mg/kg.

[7] = system: formation of IgE-like antibodies; conditions: in vivo; cited from earlier work
[8] = system: experimental allergic encephalomyelitis model; conditions: model for multiple sclerosis; cited from earlier work
Candida albicans = conditions: particularly against Candida albicans, in vitro and in vivo; cited from earlier work

Row | Compound | pIC50 ([1]; LAF, PHA and IL-1, 72 hours, read-out: IC50 analog) | R/A (ratio of the ID50s of rapamycin to the analog) ([1]; ratio less than 1.0 means the analog is less potent than rapamycin) | Skin Graft MST ± S.D. (mean graft survival time) [2] | inhibition of cancer cell line growth [3] | inhibition of cancer cell line growth [4] | inhibition of cancer cell line growth [5] | Adjuvant Arthritis % Change (uninjected paw at day 16 versus control) ([6]; 2 mg/kg, oral, more negative = more potent) [%] | inhibition of formation of IgE-like antibodies [7] | effect in experimental allergic encephalomyelitis model [8] | antifungal activity (Candida albicans) | immune-induced inflammation less than control rats ([6]; rapamycin treated rats versus control rats)
1 | 29-O-Benzylrapamycin [Example 1] | 8.38 | 0.12 | 7.2 days |  |  |  |  |  |  |  | 
2 | COCCOCCOCCO[C@@H]1CC[C@@H](C[C@@H](C)[C@@H]2CC(=O)[C@H](C)/C=C(\C)[C@@H](O)[C@@H](OC)C(=O)[C@H](C)C[C@H](C)/C=C/C=C/C=C(\C)[C@@H](OC)C[C@@H]3CC[C@@H](C)[C@@](O)(O3)C(=O)C(=O)N3CCCC[C@H]3C(=O)O2)C[C@H]1OC [Example 3, 42-O-(2-[2-(2-methoxyethoxy)-ethoxy]-ethyl)-rapamycin] |  |  | 9.8 days and 9.7 days | submicromolar concentrations | submicromolar concentrations | submicromolar concentrations | -88 |  |  |  | 
3 | CO[C@H]1C[C@@H]2CC[C@@H](C)[C@@](O)(O2)C(=O)C(=O)N2CCCC[C@H]2C(=O)O[C@H]([C@H](C)C[C@@H]2CC[C@@H](O)[C@H](OC)C2)CC(=O)[C@H](C)/C=C(\C)[C@@H](O)[C@@H](OC)C(=O)[C@H](C)C[C@H](C)/C=C/C=C/C=C/1C [rapamycin] |  |  | 12.0 ± 1.7 days |  |  |  |  | effectively inhibited | effective | antifungal activity | 70-90%
